The results in this text go back to US20190071416A1, “COMPOUNDS FOR TREATMENT OF CANCER AND EPIGENETICS” (Agency For Science, Technology and Research, priority 2015, published 2019).

The target in the assay is T1, SMYD3 (Homo sapiens, UniProt Q9H7B4).
T1 sequence (Q9H7B4 1-428): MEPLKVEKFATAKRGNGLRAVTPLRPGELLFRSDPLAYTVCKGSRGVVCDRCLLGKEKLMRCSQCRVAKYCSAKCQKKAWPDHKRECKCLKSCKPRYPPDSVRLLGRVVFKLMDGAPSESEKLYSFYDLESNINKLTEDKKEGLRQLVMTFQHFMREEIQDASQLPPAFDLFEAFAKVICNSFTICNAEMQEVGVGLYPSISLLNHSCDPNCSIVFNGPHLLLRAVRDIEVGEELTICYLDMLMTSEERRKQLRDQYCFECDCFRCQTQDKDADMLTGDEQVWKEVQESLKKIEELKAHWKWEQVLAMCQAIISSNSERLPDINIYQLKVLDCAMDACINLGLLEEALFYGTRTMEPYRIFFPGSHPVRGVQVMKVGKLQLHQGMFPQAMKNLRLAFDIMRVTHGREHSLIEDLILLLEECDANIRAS
Kind of assay: SMYD3 biochemical assay (MTase-Glo, MAP3K2 peptide substrate). The settings on record: Table 3; MTase assay, MAP3K2 peptide substrate; read-out: IC50. The protocol:
A SMYD3 enzymatic assay was developed using Promega's Methyltransferase-Glo™ reagents. In the assay, SMYD3 catalyzes the methylation of the MAP3K2 peptide substrate by transferring a methyl group from SAM to MAP3K2 peptide and further converts the SAM to SAH. The SMYD3 methyltransferase activity is measured based on the amount of SAH produced from the reaction through the use of coupling enzymes that convert the SAH to ATP. The MTase-Glo detection solution then catalyzes the formation of light from ATP.
A final concentration of 1.0 μM and 10 μM SAM and MAP3K2 peptide were added and further incubated for 30 min at room temperature before adding the MTase Glo and detection reagent. Reaction signals were detected using microplate readers on luminescent mode (Safire Tecan). The IC50 was determined by non-linear regression, using GraphPad Prism version, 5.03.
As for `CCCOC(=O)N1CCN(C(=O)c2ccc3c(Cl)c4c(nc3c2)CC(c2ccccn2)CC4)CC1` (single isomer, unassigned) [A053 (Ent-1), Propyl (R/S)-4-(9-chloro-6-(pyridin-2-yl)-5,6,7,8-tetrahydroacridine-3-carbonyl)piperazine-1-carboxylate], the IC50 (usually the concentration at which inhibition is half-maximal) worked out at 120 nM. The figure for `CCCOC(=O)N1CCN(C(=O)c2ccc3c(Cl)c4c(nc3c2)CC(c2ccccn2)CC4)CC1` (single isomer, unassigned) [A053 (Ent-2), Propyl (R/S)-4-(9-chloro-6-(pyridin-2-yl)-5,6,7,8-tetrahydroacridine-3-carbonyl)piperazine-1-carboxylate] is 240 nM. The figure for `CCCOC(=O)N1CCN(C(=O)c2ccc3c(Cl)c4c(nc3c2)CCCC4)CC1` [A001, Propyl 4-(9-chloro-5,6,7,8-tetrahydroacridine-3-carbonyl)piperazine-1-carboxylate] is 400 nM. The figure for `C=CCOC(=O)N1CCN(C(=O)c2ccc3c(Cl)c4c(nc3c2)CCCC4)CC1` [A002, Allyl 4-(9-chloro-5,6,7,8-tetrahydroacridine-3-carbonyl)piperazine-a1-carboxylate] is 1000 nM. For the compound `CCCCC(=O)N1CCN(C(=O)c2ccc3c(Cl)c4c(nc3c2)CCCC4)CC1` [A003, 1-(4-(9-Chloro-5,6,7,8-tetrahydroacridine-3-carbonyl)piperazin-1-yl)pentan-1-one], the IC50 was found to be 1520 nM. The figure for `CCCOC(=O)N1CC2CCC(C1)N2C(=O)c1ccc2c(Cl)c3c(nc2c1)CCCC3` [A004, Propyl 8-(9-chloro-5,6,7,8-tetrahydroacridine-3-carbonyl)-3,8-diazabicyclo[3.2.1]octane-3-carboxylate] is 350 nM.

Regarding `CCCOC(=O)N1CC2CCC1CN2C(=O)c1ccc2c(Cl)c3c(nc2c1)CCCC3` (centres unmarked) [A005, Propyl 5-(9-chloro-5,6,7,8-tetrahydroacridine-3-carbonyl)-2,5-diazabicyclo[2.2.2]octane-2-carboxylate], the IC50 turned out to be 4500 nM.

`O=C(c1ccc2c(Cl)c3c(nc2c1)CCCC3)N1CCN(C(=O)c2cc(C3CC3)on2)CC1` [A006, (9-Chloro-5,6,7,8-tetrahydroacridin-3-yl)(4-(5-cyclopropylisoxazole-3-carbonyl)piperazin-1-yl)methanone]: the IC50 came to 6700 nM.

As for `CC(C)Cc1cc(C(=O)N2CCN(C(=O)c3ccc4c(Cl)c5c(nc4c3)CCCC5)CC2)no1` [A007, (9-Chloro-5,6,7,8-tetrahydroacridin-3-yl)(4-(5-isobutylisoxazole-3-carbonyl)piperazin-1-yl)methanone], the IC50 worked out at 6900 nM. With `CCCOC(=O)N1CCN(C(=O)c2ccc3c(Cl)c4c(nc3c2)CCC(C)C4)CC1` (centres unmarked) [A008, Propyl 4-(9-chloro-7-methyl-5,6,7,8-tetrahydroacridine-3-carbonyl)piperazine-1-carboxylate], the IC50 is 1300 nM.

Consider `CCCOC(=O)N1C2CCC1CN(C(=O)c1ccc3c(Cl)c4c(nc3c1)CCCC4)C2` [A009, Propyl 3-(9-chloro-5,6,7,8-tetrahydroacridine-3-carbonyl)-3,8-diazabicyclo[3.2.1]octane-8-carboxylate], for which the IC50 was found to be 360 nM. To `CCCOC(=O)N1CCN(C(=O)c2ccc3c(Cl)c4c(nc3c2)CCCC4)[C@@H](C)C1` [A010, Propyl (S)-4-(9-chloro-5,6,7,8-tetrahydroacridine-3-carbonyl)-3-methylpiperazine-1-carboxylate] belongs 190 nM.

Turning to `CCCOC(=O)N1CCN(C(=O)c2ccc3c(Cl)c4c(nc3c2)CCCC4)[C@H](C)C1` [A011, Propyl (R)-4-(9-chloro-5,6,7,8-tetrahydroacridine-3-carbonyl)-3-methylpiperazine-1-carboxylate], the concentration for half-maximal inhibition (IC50) worked out at 300 nM. To `Cc1cc(C(=O)N2CCN(C(=O)c3ccc4c(Cl)c5c(nc4c3)CCCC5)CC2)no1` [A012, (9-Chloro-5,6,7,8-tetrahydroacridin-3-yl)(4-(5-methylisoxazole-3-carbonyl)piperazin-1-yl)methanone] belongs 1670 nM.

Consider `CCCOC(=O)N1C2CCCC1CN(C(=O)c1ccc3c(Cl)c4c(nc3c1)CCCC4)C2` [A013, Propyl 3-(9-chloro-5,6,7,8-tetrahydroacridine-3-carbonyl)-3,9-diazabicyclo[3.3.1]nonane-9-carboxylate], for which the IC50 is 190 nM. To `CCCOC(=O)N1CC2CC(C1)N2C(=O)c1ccc2c(Cl)c3c(nc2c1)CCCC3` [A014, Propyl 6-(9-chloro-5,6,7,8-tetrahydroacridine-3-carbonyl)-3,6-diazabicyclo[3.1.1]heptane-3-carboxylate] belongs 1000 nM.

`CCCOC(=O)N1CC2CCCC(C1)N2C(=O)c1ccc2c(Cl)c3c(nc2c1)CCCC3` [A015, Propyl 9-(9-chloro-5,6,7,8-tetrahydroacridine-3-carbonyl)-3,9-diazabicyclo[3.3.1]nonane-3-carboxylate]: the half-inhibitory concentration (IC50) turned out to be 320 nM. In the case of `CCCOC(=O)N1CCN(C(=O)c2ccc3c(Cl)c4c(nc3c2)CCCC4)C(CC)C1` (centres unmarked) [A016, Propyl 4-(9-chloro-5,6,7,8-tetrahydroacridine-3-carbonyl)-3-ethylpiperazine-1-carboxylate], the IC50 is 640 nM. To `CCCOC(=O)N1CC(C)N(C(=O)c2ccc3c(Cl)c4c(nc3c2)CCCC4)CC1C` (centres unmarked) [A017, Propyl 4-(9-chloro-5,6,7,8-tetrahydroacridine-3-carbonyl)-2,5-dimethylpiperazine-1-carboxylate] belongs 290 nM. In the case of `CCCOC(=O)N1CCN(C(=O)c2ccc3c(Cl)c4c(nc3c2)CCCC4)CC1C` (centres unmarked) [A018, Propyl 4-(9-chloro-5,6,7,8-tetrahydroacridine-3-carbonyl)-2-methylpiperazine-1-carboxylate], the concentration for half-maximal inhibition (IC50) was determined as 390 nM.

As for `CCCOC(=O)N1C2CC1CN(C(=O)c1ccc3c(Cl)c4c(nc3c1)CCCC4)C2` [A019, Propyl 3-(9-chloro-5,6,7,8-tetrahydroacridine-3-carbonyl)-3,6-diazabicyclo[3.1.1]heptane-6-carboxylate], the half-maximal inhibitory concentration (IC50) is 13100 nM. As to `CCCOC(=O)N1C(C)CN(C(=O)c2ccc3c(Cl)c4c(nc3c2)CCCC4)CC1C` (centres unmarked) [A020, Propyl 4-(9-chloro-5,6,7,8-tetrahydroacridine-3-carbonyl)-2,6-dimethylpiperazine-1-carboxylate], the IC50 is 350 nM. Regarding `CC(C)COC(=O)N1CCN(C(=O)c2ccc3c(Cl)c4c(nc3c2)CCCC4)CC1` [A021, Isobutyl 4-(9-chloro-5,6,7,8-tetrahydroacridine-3-carbonyl)piperazine-1-carboxylate], the IC50 was 840 nM. To `CCCOC(=O)N1CCN(C(=O)c2ccc3c(Cl)c4c(nc3c2)CC(C)CC4)CC1` (centres unmarked) [A022, Propyl 4-(9-chloro-6-methyl-5,6,7,8-tetrahydroacridine-3-carbonyl)piperazine-1-carboxylate] belongs 1000 nM; to `CCCOC(=O)N1CCN(C(=O)c2ccc3c(Cl)c4c(nc3c2)CCCC4C)CC1` (centres unmarked) [A023, Propyl 4-(9-chloro-8-methyl-5,6,7,8-tetrahydroacridine-3-carbonyl)piperazine-1-carboxylate], 5200 nM.

For `CCCOC(=O)N1CCN(C(=O)c2ccc3c(Cl)c4c(nc3c2)CC(c2ccccc2)CC4)CC1` (centres unmarked) [A024, Propyl 4-(9-chloro-6-phenyl-5,6,7,8-tetrahydroacridine-3-carbonyl)piperazine-1-carboxylate], the half-inhibitory concentration (IC50) was determined as 1200 nM.

Turning to `CCCOC(=O)N1CCN(C(=O)c2ccc3c(Cl)c4c(nc3c2)CC(C#N)CC4)CC1` (centres unmarked) [A025, Propyl 4-(9-chloro-6-cyano-5,6,7,8-tetrahydroacridine-3-carbonyl)piperazine-1-carboxylate], the IC50 was 1900 nM. Turning to `CCCOC(=O)N1CCN(C(=O)c2ccc3c(Cl)c4c(nc3c2)CCCC4C#N)CC1` (centres unmarked) [A026, Propyl 4-(9-chloro-8-cyano-5,6,7,8-tetrahydroacridine-3-carbonyl)piperazine-1-carboxylate], the IC50 was 3200 nM. To `CCCOC(=O)N1CCN(C(=O)c2ccc3c(Cl)c4c(nc3c2)CC(c2cccnc2)CC4)CC1` (centres unmarked) [A027, Propyl 4-(9-chloro-6-(pyridin-3-yl)-5,6,7,8-tetrahydroacridine-3-carbonyl)piperazine-1-carboxylate] belongs 400 nM; to `CCCOC(=O)N1CCN(C(=O)c2ccc3c(Cl)c4c(nc3c2)CC(CN)CC4)CC1` (centres unmarked) [A028, Propyl 4-(6-(aminomethyl)-9-chloro-5,6,7,8-tetrahydroacridine-3-carbonyl)piperazine-1-carboxylate], 380 nM; to `CCCOC(=O)N1CCN(C(=O)c2ccc3c(Cl)c4c(nc3c2)CCC(C(=O)OC)C4)CC1` (centres unmarked) [A029, Methyl 9-chloro-6-(4-(propoxycarbonyl)piperazine-1-carbonyl)-1,2,3,4-tetrahydroacridine-2-carboxylate], 860 nM.

With `CCCOC(=O)N1CCN(C(=O)c2ccc3c(Cl)c4c(nc3c2)CCCC4)CC1CC` (centres unmarked) [A030, Propyl 4-(9-chloro-5,6,7,8-tetrahydroacridine-3-carbonyl)-2-ethylpiperazine-1-carboxylate], the IC50 is 630 nM.
